The values that follow come from patent US6989384B2, “Antipicornaviral compounds and compositions, their pharmaceutical uses, and materials for their synthesis” (Agouron Pharmaceuticals, Inc., priority 2000, dated 2006).

Read-outs that look alike come from different tables or passages of the source.

By EC50 is commonly meant the concentration that produces a half-maximal response. One may read the CC50 as the concentration that lowers cell viability or growth by half.

One series has as its system HRV-1A. As to the kind of experiment: Antirhinoviral H1-HeLa cell culture assay (cell protection, XTT), HRV-1A. The conditions noted are these: Rhinovirus A, HRV1A, 48 h, H1-HeLa cells, two days. In kind it is cell-based, human rhinovirus. As to the method:
(§1) In this cell protection assay, the ability of compounds to protect cells against HRV infection was measured by the XTT dye reduction method, which is described in Weislow et al., J. Natl. Cancer Inst. 1989, vol. 81, 577–586.
(§2) H1-HeLa cells were infected with HRV-14 at a multiplicity of infection (m.o.i.) of 0.13 (virus particles/cell) or mock-infected with medium only. Infected or mock-infected cells were resuspended at 8×10^5 cells per mL, and incubated with appropriate concentrations of the compounds to be tested. Two days later, XTT/PMS was added to test plates and the amount of formazan produced was quantified spectrophotometrically at 450/650 nm. The EC50 value was calculated as the concentration of compound that increased the percentage of formazan production in compound-treated, virus-infected cells to 50% of that produced by compound-free, mock-infected cells. The 50% cytotoxic dose (CC50) was calculated as the concentration of compound that decreased the percentage of formazan produced in compound-treated, mock-infected cells to 50% of that produced by compound-free, mock-infected cells.
(§3) All strains of human rhinovirus (HRV) for use in this assay were purchased from American Type Culture Collection (ATCC), except for HRV serotype-14 (produced from the infectious cDNA clone constructed by Dr. Robert Rueckert, Institute for Molecular Virology, University of Wisconsin, Madison, Wis.). HRV stocks were propagated and viral assays were performed in H1-HeLa cells (ATCC). Cells were grown in minimal essential medium with 10% fetal bovine serum, available from Life Technologies (Gaithersburg, Md.).
(§4) The compounds were tested against control compounds WIN 51711, WIN 52084, and WIN 54954 (obtained from Sterling-Winthrop Pharmaceuticals), Pirodavir (obtained from Janssen Pharmaceuticals), and Pleconaril (prepared according to the method described in Diana et al., J. Med. Chem 1995, vol. 38, 1355). Antiviral data obtained for the test compounds are shown in the Table, where all data are for HRV serotype-14 unless otherwise noted in parentheses.
For orientation: Formazan colour is commonly taken as a measure of viable cells.

The next series has as its system HRV-10. As to the kind of experiment: Antirhinoviral H1-HeLa cell culture assay (cell protection, XTT), HRV-10. The format is cell-based. The conditions noted are these: Human rhinovirus sp., HRV10, 48 h, HRV-10, H1-HeLa cells, two days. As to the method:
as §1, §2, §3, §4

Series [1] has as its target T1, rhinovirus 3C protease from HRV serotype-14 (Human rhinovirus 14, UniProt P03303).
T1 construct: Recombinant rhinovirus 3C proteases; made in house
Briefly: Inhibition of rhinovirus 3C protease activity (FRET assay), HRV-14. The format is biochemical. The settings on record: read-out: Protease Inhibition kobs/I. As to the method: (§5) Stock solutions (50 mM, in DMSO) of various compounds were prepared; dilutions were in the same solvent. Recombinant rhinovirus 3C proteases (see Birch et al., “Purification of recombinant human rhinovirus 14 3C protease expressed in Escherichia coli,” Protein Expr. Pur. 1995, 6(5), 609–618) from serotypes 14, 16, and 2 were prepared by the following standard chromatographic procedures: (1) ion exchange using Q Sepharose Fast Flow from Pharmacia; (2) affinity chromatography using Affi-Gel Blue from Biorad; and (3) sizing using Sephadex G-100 from Pharmacia. Each assay sample contained 2% DMSO, 50 mM tris pH 7.6, 1 mM EDTA, a test compound at the indicated concentration, approximately 1 μM substrate, and 50–100 nM protease. The kobs/I values were obtained from reactions initiated by addition of enzyme rather than substrate. RVP activity was measured in the fluorescence resonance energy transfer assay. The substrate was (N-terminal) DABCYL-(Gly-Arg-Ala-Val-Phe-Gln-Gly-Pro-Val-Gly)-EDANS. In the uncleaved peptide, the EDANS fluorescence was quenched by the proximal DABCYL group. When the peptide was cleaved, the quenching was relieved, and activity was measured as an increase in fluorescence signal. In the Table, unless otherwise indicated, all data are for rhinovirus 3C protease from HRV serotype-14 (produced from the infectious cDNA clone constructed by Dr. Robert Rueckert, Institute for Molecular Virology, University of Wisconsin, Madison, Wis.). The data in the column designated kobs/[I] were measured from progress curves in enzyme start experiments.

For a further series, the system named is HRV-14. As to the kind of experiment: Antirhinoviral H1-HeLa cell culture assay (cell protection, XTT), HRV-14. In kind it is cell-based, human rhinovirus. The conditions noted are these: Rhinovirus B, read-out: Cell Protection EC50. The protocol: as §1, §2, §3, §4
Series [2] in a line: Cytotoxicity in mock-infected H1-HeLa cells (XTT). In kind it is cell-based. The settings on record: human, two days, read-out: Toxicity CC50. The protocol:
as §1, §2, §3

The target of series [3] is T2, rhinovirus 3C protease (HRV-2) (Human rhinovirus 2, UniProt P04936).
T2 construct: Recombinant rhinovirus 3C proteases; made in house
T2 sequence (P04936 1508-1690): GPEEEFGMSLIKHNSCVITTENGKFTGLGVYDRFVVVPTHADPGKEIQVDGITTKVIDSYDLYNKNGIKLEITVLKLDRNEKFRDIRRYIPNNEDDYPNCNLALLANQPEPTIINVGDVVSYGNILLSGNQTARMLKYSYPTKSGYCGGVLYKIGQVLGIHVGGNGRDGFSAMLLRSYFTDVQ
Briefly: Inhibition of rhinovirus 3C protease activity (FRET assay), HRV-2. In kind it is biochemical. The settings on record: read-out: Protease Inhibition kobs/I. As to the method:
as §5

The mark [4] stands for this setting: HRV-14 3C protease, progress curves, enzyme start.
[5] abbreviates: HRV14, 48 h, HRV-14, H1-HeLa cells, XTT, two days.

T1 sequence (P03303 1538-1719): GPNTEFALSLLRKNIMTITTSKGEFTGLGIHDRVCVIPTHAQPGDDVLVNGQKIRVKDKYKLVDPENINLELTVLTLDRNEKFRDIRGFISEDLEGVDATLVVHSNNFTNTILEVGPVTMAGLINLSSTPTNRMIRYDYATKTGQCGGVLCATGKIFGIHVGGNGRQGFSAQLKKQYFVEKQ

For the compound `CCOC(=O)/C=C/[C@H](CCC(N)=O)NC(=O)c1ccc2ccccc2c1` [Compound 25, 6-carbamoyl-4S-[(naphthalene-2-carbonyl)-amino]-hex-2-enoic acid ethyl ester], the EC50 with HRV-1A was 22 µM; in the series on HRV-10, 35 µM; in the series on HRV-14 (setting [5]) it was 0.6 µM. In addition, the kinact/KI in series [1] (setting [4]) worked out at 150 M⁻¹ s⁻¹. The CC50 at 2 days in series [2] is above 100 µM.

For `CCOC(=O)/C=C/[C@H](CCC(N)=O)NC(=O)c1cc2ccccc2s1` [Compound 26, 4S-[(benzo[b]thiophene-2-carbonyl)-amino]-6-carbamoyl-hex-2-enoic acid ethyl ester], the EC50 in the series on HRV-1A stood at 59 µM; with HRV-10, 12.4 µM; with HRV-14 (setting [5]), 1.5 µM. Moreover, the kinact/KI in series [1] (setting [4]) was 95 M⁻¹ s⁻¹. Further, the CC50 at 2 days in series [2] is above 100 µM.

For `CCOC(=O)/C=C/[C@H](CCC(N)=O)NC(=O)c1ccc(Cl)c(Cl)c1` [Compound 35, 6-carbamoyl-4S-(3,4-dichloro-benzoylamino)-hex-2-enoic acid ethyl ester], the kinact/KI in series [1] (setting [4]) was 35 M⁻¹ s⁻¹. The 50% effective concentration (EC50) in the series on HRV-14 (setting [5]) is above 100 µM. The CC50 at 2 days in series [2] worked out at 100 µM.

On to `CCOC(=O)/C=C/[C@H](CCC(N)=O)NC(=O)c1ccccc1COC(=O)c1ccccc1` [Compound 36], for which the kinact/KI in series [1] (setting [4]) was 10 M⁻¹ s⁻¹. Further, in the series on HRV-14 (setting [5]), the EC50 was above 100 µM. Moreover, in series [2], the CC50 at 2 days was above 100 µM.

Consider `CCOC(=O)/C=C/[C@H](CCC(N)=O)NC(=O)c1ccccc1CCc1ccccc1` [Compound 37, 6-carbamoyl-4S-(2-phenethyl-benzoylamino)-hex-2-enoic acid ethyl ester], for which, in series [1] (setting [4]), the kinact/KI worked out at 6 M⁻¹ s⁻¹. The EC50 with HRV-14 (setting [5]) is above 100 µM. Moreover, in series [2], the CC50 at 2 days was above 100 µM.

With `CCOC(=O)/C=C/[C@H](CCC(N)=O)NC(=O)c1cc2ccccc2[nH]1` [Compound 38, 6-carbamyl-4S-[(1H-indole-2-carbonyl)-amino]-hex-2-enoic acid ethyl ester], in series [1] (setting [4]), the kinact/KI was determined as 71 M⁻¹ s⁻¹. Moreover, the EC50 with HRV-14 (setting [5]) amounted to 1 µM. In series [2], the CC50 at 2 days is above 100 µM.

`CCOC(=O)/C=C/[C@H](C[C@@H]1CCNC1=O)NC(=O)c1cc2cc(OC)ccc2[nH]1` [Compound 41, 4S-[(5-Methoxy-1H-indole-2-carbonyl)-amino]-5-(2-oxo-pyrrolidin-3S-yl)-pent-2-enoic acid ethyl ester]: the kinact/KI in series [1] turned out to be 2190 M⁻¹ s⁻¹. Also, the EC50 with HRV-14 (HRV14, H1-HeLa, 48 h) is 2.36 µM. In series [2], the CC50 at 2 days was above 100 µM.

Take `CCOC(=O)/C=C/[C@H](C[C@@H]1CCNC1=O)NC(=O)c1cc2cc(C)ccc2[nH]1` [Compound 43, 4-[(5-Methyl-1H-indole-2-carbonyl)-amino]-5-(2-oxo-pyrrolidin-3-yl)-pent-2-enoic acid ethyl ester]: in series [1], the kinact/KI worked out at 3460 M⁻¹ s⁻¹. Besides, the 50% effective concentration (EC50) with HRV-14 (HRV14, H1-HeLa, 48 h) turned out to be 2.14 µM. Moreover, the CC50 at 2 days in series [2] is above 100 µM.

As to `CCOC(=O)/C=C/[C@H](C[C@@H]1CCNC1=O)NC(=O)c1cc(-c2ccccc2)oc1C` [Compound 45, 4S-[(2-Methyl-5-phenyl-furan-3-carbonyl)-amino]-5-(2-oxo-pyrrolidin-3S-yl)-pent-2-enoic acid ethyl ester], the kinact/KI in series [1] was determined as 4740 M⁻¹ s⁻¹. Moreover, the EC50 in the series with HRV-14 (HRV14, H1-HeLa, 48 h) amounted to 1.94 µM. In addition, in series [2], the CC50 at 2 days was above 100 µM.

For the compound `CCOC(=O)/C=C/[C@H](C[C@@H]1CCNC1=O)NC(=O)/C=C/c1ccc(F)c(Br)c1` [Compound 48, 4S-[3-(3-Bromo-4-fluoro-phenyl)-acryloylamino]-5-(2-oxo-pyrrolidin-3S-yl)-pent-2-enoic acid ethyl ester], in series [1], the kinact/KI came out at 2860 M⁻¹ s⁻¹. For the same compound, the EC50 with HRV-14 (HRV14, H1-HeLa, 48 h) was 0.625 µM. Further, the CC50 at 2 days in series [2] is above 100 µM.

For the compound `CCOC(=O)/C=C/[C@H](C[C@@H]1CCNC1=O)NC(=O)/C=C/c1cc2c(cc1Br)OCO2` [Compound 49, 4S-[3-(6-Bromo-benzo[1,3]dioxol-5-yl)-acryloylamino]-5-(2-oxo-pyrrolidin-3S-yl)-pent-2-enoic acid ethyl ester], the EC50 in the series with HRV-1A stood at 2.51 µM; in the series with HRV-10, 0.316 µM; in the series on HRV-14 (HRV14, H1-HeLa, 48 h), 0.49 µM. For the same compound, the kinact/KI in series [1] is 14400 M⁻¹ s⁻¹. Moreover, in series [2], the CC50 at 2 days is above 100 µM.

Take `CCOC(=O)/C=C/[C@H](C[C@@H]1CCNC1=O)NC(=O)c1ccc2cc(C)ccc2c1` [Compound 51, 4S-[(6-Methyl-naphthalene-2-carbonyl)-amino]-5-(2-oxo-pyrrolidin-3S-yl)-pent-2-enoic acid ethyl ester]: the kinact/KI in series [1] was found to be 5020 M⁻¹ s⁻¹. Moreover, the EC50 in the series on HRV-14 (HRV14, H1-HeLa, 48 h) is 0.88 µM. In series [2], the CC50 at 2 days was above 100 µM.

In the case of `CCOC(=O)/C=C/[C@H](C[C@@H]1CCNC1=O)NC(=O)C1=Cc2cc(Br)ccc2OC1` [Compound 52, 4S-[(6-Bromo-2H-chromene-3-carbonyl)-amino]-5-(2-oxo-pyrrolidin-3S-yl)-pent-2-enoic acid ethyl ester], the EC50 with HRV-1A was 5.07 µM; in the series with HRV-10 it was 0.546 µM; with HRV-14 (HRV14, H1-HeLa, 48 h), 0.175 µM. Moreover, the kinact/KI worked out at 25000 M⁻¹ s⁻¹ in series [1] and 372 M⁻¹ s⁻¹ in series [3]. Also, the 50% cytotoxic concentration (CC50) at 2 days in series [2] was 65 µM.

As to `CCOC(=O)/C=C/[C@H](C[C@@H]1CCNC1=O)NC(=O)c1ccc2ccc(O)cc2c1` [Compound 54, 4S-[(7-Hydroxy-naphthalene-2-carbonyl)-amino]-5-(2-oxo-pyrrolidin-3S-yl)-pent-2-enoic acid ethyl ester], the kinact/KI was 220 M⁻¹ s⁻¹ in series [1] (setting [4]) and 35 M⁻¹ s⁻¹ in series [3] (HRV-2 3C protease, progress curves, enzyme start).

With `CCOC(=O)/C=C/[C@H](C[C@@H]1CCNC1=O)NC(=O)Nc1cccc2ccccc12` [Compound 56, 4S-(3-naphthalen-1-yl)-5-(2-oxo-pyrrolidin-3S-yl)-pent-2-enoic acid ethyl ester], in series [1], the kinact/KI was 117 M⁻¹ s⁻¹. In the series with HRV-14 (HRV14, H1-HeLa, 48 h), the EC50 is above 10 µM. In addition, the CC50 at 2 days in series [2] is above 10 µM.

Take `CCOC(=O)/C=C/[C@H](C[C@@H]1CCNC1=O)NC(=O)Nc1cc(OC)cc(OC)c1` [Compound 57, 4S-[3-(3,5-dimethoxy-phenyl)ureido]-5-(2-oxo-pyrrolidin-3S-yl)-pent-2-enoic acid ethyl ester]: the kinact/KI in series [1] turned out to be 388 M⁻¹ s⁻¹. Besides, in the series with HRV-14 (HRV14, H1-HeLa, 48 h), the EC50 was above 10 µM. The CC50 at 2 days in series [2] is above 10 µM.

`CCOC(=O)/C=C/[C@H](C[C@@H]1CCNC1=O)NC(=O)COc1ccc(Cl)c(Cl)c1` [Compound 62, 4S-[2-(3,4-dichloro-phenoxy)-acetylamino]-5-(2-oxo-pyrrolidin-3S-yl)-pent-2-enoic acid ethyl ester]: the kinact/KI in series [1] is 134 M⁻¹ s⁻¹. Moreover, the EC50 in the series on HRV-14 (HRV14, H1-HeLa, 48 h) stood at 6.1 µM. The CC50 at 2 days in series [2] was above 10 µM.

Take `CCOC(=O)/C=C/[C@H](C[C@@H]1CCNC1=O)NC(=O)C1=Cc2ccccc2OC1` [Compound 67, 4S-[(2H-chromene-3-carbonyl)-amino]-5-(2-oxopyrrolidin-3S-yl)-pent-2-enoic acid ethyl ester]: the kinact/KI in series [1] was determined as 886 M⁻¹ s⁻¹. For the same compound, the EC50 in the series with HRV-14 (HRV14, H1-HeLa, 48 h) turned out to be 1.19 µM. For the same compound, the CC50 at 2 days in series [2] is above 100 µM.
